{"source": "patent US7544700B2", "about": "“Pharmaceutically active sulfonamide derivatives bearing both lipophilic and ionisable moieties as inhibitors of protein JunKinases” (Laboratoires Serono SA, priority 2000, dated 2009)", "key": {"[1]": {"system": "IL-2 release by (PMA+Ionomycin)-stimulated Jurkat cells", "test": "IL-2 release assay (IL-2 ELISA)", "format": "cell-based", "settings": "Homo sapiens; PMA + Ionomycine stimulated Jurkat cells", "procedure": "The Ability of the Compounds According to Formula I to Modulate the Inflammatory Response by Inhibiting the Release of IL-2 was Assessed Using the Following Protocol\nJNK pathway activation triggers the production of inflammatory cytokines such as IL-2. JNK can be activated by external stimuli such as PMA and Ionomycine and IL-2 production can be measured via an IL-2 ELISA test. Comparative measurements with and without the compounds of the invention according to the following protocol measure the ability of the compounds to prevent to stress-mediated IL-2 release.\nJurkat cells, a human T cell leukemia cell line (American Type Culture Collection # TIB 152) were cultured in RPMI 1640 medium (Gibco, BRL) supplemented with 10% of […] fetal calf serum (FCS), Glutamine and Penstrep. The cell suspension in the medium is diluted to give 2.10^6 cells/mL. The cells were plated (2.10^5 cells/well) on a 96-well plate containing different concentrations of a compound according to formula I (final concentration of compounds, 10, 3, 1, 0.3, 0.1 μM). This mixture is incubated 30 minutes at 37° C. in a humidified CO2 atmosphere. Cells were then treated with 10 μl PMA (Phorbolmyristate-13 Acetate-12)+Ionomycine (0.1 μM and 1 μM final concentration) in all wells except negative control. In wells without compounds, 10 μl of RPMI 2% DMSO (=0.1% final) is added. Cells are incubated 24 hours at 37° C. and then the supernatant harvested (freeze at −20° C. if not used the same day) prior to performing IL-2 ELISA test on the supernatant.\nIL-2 release into the medium by (PMA+Iononomycin)-stimulated Jurkat cells, in presence or absence of test compounds may be assayed by ELISA. Following the procedure described below.\nMonoclonal anti-human IL-2 antibody (MAB602) (capture), biotinylated anti-human IL-2 antibody (BAF202) (detection) and recombinant human IL-2 (202-IL-010) (standard) from From R&D Systems are used. […]\n• 1. […] Optical density is measured using a microtiter plate reader set to 450 nm with correction at 570 nm."}, "[2]": {"system": "Hela luciferase reporter-c-Jun (HLR-c-Jun) cell lines", "test": "C-Jun reporter assay", "format": "cell-based", "settings": "Homo sapiens, MEKK-1 transfected HLR-c-Jun cells", "source_text": "The phosphorylation of the transcriptional factor, c-jun, by JNK in the MAP kinase signal transduction pathway can be followed via a trans-reporting system such as the commercially available PathDetect® (32).\nA trans-reporting system allows one to follow, via Luciferase activity, the activation status of a fusion trans-activator protein. The trans-activator protein consists of the activation domain of the transcriptional factor of interest (c-jun) fused with a yeast transcriptional activator, GAL4 DNA binding domain (dbd). The GAL4 dbd has the advantage that no known mammalian transcriptional factors can bind to it and therefore the background noise of the assay is very low.\nIn the present case, Hela luciferase reporter-c-Jun (HLR-c-Jun) cell lines which constitutively express GAL4-cJun were used.\nThe MEKK-1 gene was inserted. MEKK-1 is a MAPKKK which triggers the activation of JNK. Expression of wild type MEKK-1 is sufficient for JNK activation (33).\nOnce, JNK is activated it can induce the phosphorylation of the c-jun domain of the fusion trans-activator protein (GAL4dbd-cJun) which forms a dimer. The dimer is then is able to bind to a GAL4 upstream activating sequence (GAL4 UAS) of the reporter which activates Luciferase expression.\nLuciferase expression is detected by luminescence using a simple assay such as Dual-Luciferase® Reporter Assay System (34) in which Renilla is used as a “control reporter”.\nInhibition of JNK is observed as a decrease in Luciferase expression and detected by a decrease in luminescence.\nHLR-c-Jun cells are cultured in DMEM High Glc supplemented with 10% FCS (Sigma), 2 mM Glutamine (Gibco), P/S, Hygromycin b 100 μg/mL and G418 250 μg/mL.\nThe cell suspensions are diluted with medium to give about 3.5×10^6 cells/mL and […] of cell suspension are put onto 2 10 cm culture dishes containing 9 mL of culture medium.\nTransfections • Control: 0.2 μg pTK Renilla, 5.8 μg pBluescript KS, 500 μl OPTIMEM (GOBCO), 18 μl Fugene 6. • Induced: 0.1 μg pMEKK1, 0.2 μg pTK Renilla, 5.7 μg pBluescript KS, 500 μl OPTIEM (GIBCO), 18 μl Fugene 6 30′ RT.\nThe transfection mixture is added to the plated cells. The plates are incubated over night at 37° C. in a humidified atmosphere of 5% CO2 in air.\nA 96 wells plate (100 μl of culture medium per well) is prepared. Negative control (vehicle): 2 μl of DMSO is added to the 100 μl (in triplicate). […]\nThe medium is removed from the plate and the cells are washed two times with 100 μl PBS. […] The luminometer reading is recorded.\n−50 μl of Luciferase Assay Reagent II are injected and readings are recorded at 5 and 10 minutes.\n50 μl of Stop & Glo® Reagent are injected and readings are recorded at 5 and 10 minutes.\nThe relative luminescence is then measured: RLU Luciferase/RLU Renilla."}}, "note": "pIC50: −log10 of the molar value.", "data": [{"smiles": "COc1cccc(C(=O)NCc2ccc(S(=O)(=O)N3CCC(NCc4ccc(C(F)(F)F)cc4)CC3)s2)c1", "note": "[Example 1, 3-Methoxy-N-{[5-({4-[(4-trifluoromethylbenzyl)amino]piperidin-1-yl}sulfonyl)thien-2-yl]methyl}benzamide]", "values": [{"measurement": "pIC50", "setting": "[1]", "value": "> 6.10"}, {"measurement": "pIC50", "setting": "[2]", "value": "> 6.15"}]}]}
